Test results as given in patent US5637582A, “Peripheral circulation improving agent” (priority 1992, dated 1997).

How the values were obtained:
arterial blood pressure [1] = assay: Change of arterial blood pressure in anesthetized dogs (Experimental Example 4); conditions: 100 μg/kg i.v.
Procedure: (§1) Each test compound was intravenously administered to adult dogs (one group consisting of 2 or 4 dogs) under anesthesia and artificial respiration at a dose of 100 μg/kg body weight. Femoral arterial blood flow, vertebral arterial blood flow and arterial blood pressure were measured 1, 3, 5, 10, 20 and 30 minutes after the administration. The femoral arterial blood flow and vertebral arterial blood flow were measured with an electromagnetic blood flowmeter (manufactured by Nihon Koden, MFV-2100, trade name) through a flow probe attached to the femoral artery or vertebral artery. The arterial blood pressure was measured with a pressure transducer (manufactured by Millar, MICRO-TIP, Model SPC-350) through a catheter attached to the brachial artery.
(§2) Changes of the femoral arterial blood flow, vertebral arterial blood flow and arterial blood pressure were estimated by comparing the values measured before and after the administration of the test compound.

femoral artery [2] = assay: Femoral arterial blood flow, hind leg cooling model of Raynaud's disease (Experimental Example 5); type: in vivo, male SD rat
Procedure: (Lower limbs peripheral circulation disorder model due to hind leg cooling: Model of Raynaud's disease)
A catheter was inserted into left common carotid artery of a male SD rat (one group consisting of 5 rats) under anesthesia, and the arterial blood pressure was measured with a standard pressure transducer (manufactured by Nihon Koden. TP-200T, trade name) through a catheter attached to the artery. After isolating the left femoral artery from the peripheral connective tissue, a flow probe (HDP 10-20R: F 1.0 mm) of a Doppler blood flow meter (manufactured by Crystal Biotec Co., PD20, trade name) was attached thereto and was connected to the Doppler blood flow meter to measure the artery blood flow. After the operation, at the time that the state became stable, the left hind leg was exposed to a perfused solution at 10° C. to decrease the femoral arterial blood flow. After 30 minutes, 1 ml/kg of a 0.9% NaCl solution or 300 μg/kg of the test compound A was intravenously administered and the state was observed. In the case of Beraprost Na, continuous injection in an amount of […] was carried out after 30 minutes from cooling. The compounds to be used were each dissolved in a 0.9% NaCl solution.
The present model is disclosed, for example, in Nishio et al, "Effect of Beraprost Sodium on Peripheral Circulatory Disturbances Induced by Various Stimuli", Arzneim.-Forsch./Drug Res., 39 (II), Nr. 10 (1989), pp. 1229-1234. Note particularly the section "2.4. Sphygmometry in rat hind paw", at page 1230.

femoral artery [3] = assay: Increase in femoral arterial blood flow in anesthetized dogs, cumulative i.v. dosing (Experimental Example 1); type: in vivo, dog; conditions: 60 min after administration
Procedure: Adult dogs (one group consisting of a dog) were intravenously given the test compound under anesthesia and artificial respiration successively at intervals of 60 minutes so that the dose can be 10, 30, 100 and 300 μg/kg body weight, and the blood flow of femoral artery was measured with a time course. […] An increase in the femoral arterial blood flow was calculated by subtracting the blood flow before the administration of the first dose of test compound as the standard value (the base line) from that 60 minutes after each administration.

mouse = assay: Acute oral toxicity in mouse; type: in vivo; conditions: 1000 mg/kg oral, even after 2 days
Excerpt: Furthermore, a (-)-cis-1,5-benzothiazepine derivative according to formula (I) has low toxicity and can be used safely.

arterial blood pressure [4] = tested on: arterial blood pressure; design: species or system male SD rat; conditions: rat, in vivo
Procedure: (Lower limbs peripheral circulation disorder model due to hind leg cooling: Model of Raynaud's disease) […] TP-200T, trade name) through a catheter attached to the artery. […] After the operation, at the time that the state became stable, the left hind leg was exposed to a perfused solution at 10° C. to decrease the femoral arterial blood flow. […] In the case of Beraprost Na, continuous injection in an amount of […] was carried out after 30 minutes from cooling. […] The present model is disclosed, for example, in Nishio et al, "Effect of Beraprost Sodium on Peripheral Circulatory Disturbances Induced by Various Stimuli", Arzneim.-Forsch./Drug Res., 39 (II), Nr. 10 (1989), pp. 1229-1234. Note particularly the section "2.4. Sphygmometry in rat hind paw", at page 1230.

[5] = tested on: right anterior tibial muscle; assay: Abdominal aorta knot-anterior tibial muscle contraction model: model of Buerger's disease (Experimental Example 6); type: in vivo, rat; design: Change in contraction of the right anterior tibial muscle: unit not given here; conditions: 10 mg/kg/day p.o. 2 weeks
Procedure: (Abdominal aorta knot-anterior tibial muscle contraction model: Model of Buerger's disease)
Rats were previously divided into four groups (Group I: sham operation+5 ml/kg/day of distilled water, Group II: sham operation+10 mg/kg/day of the test compound A, Group III: abdominal aorta knot+5 ml/kg/day of distilled water, and Group IV: abdominal aorta knot+10 mg/kg/day of the test compound A), and operated under anesthesia, 10 mg/kg/day of the test compound A or 5 ml/kg/day of distilled water was orally administered to respective rats, to which an abdominal aorta was knotted or a sham operation was applied, for 2 weeks. Thereafter, a catheter was inserted into a trachea to secure airway under anesthesia. A skin at the right hind leg was cut to expose a muscle and a right anterior tibial muscle was isolated. After the operation, at the time that the state became stable, 10 mg/kg of the test compound A or 1 ml/kg of 0.25% CMC was administered into a duodenum. After 60 minutes from the administration, a tendon of the right anterior tibial muscle was connected with a transducer and the right anterior tibial muscle was directly stimulated electrically with platinum electrodes at 0.5 Hz to obtain a Force-Current curve. Then, electrical stimulation was carried out with a current which submaximally contracted the right anterior tibial muscle and a stimulation frequency of 1.5 Hz for 30 minutes to observe the progress. […]

femoral artery [6] = assay: Time course of femoral arterial blood flow in dogs after i.v. administration (Experimental Example 2); type: in vivo, dog
femoral artery [7] = assay: Change of femoral arterial blood flow in anesthetized dogs (Experimental Example 4); type: in vivo, dog; conditions: 100 μg/kg i.v.
Procedure: as §1, §2

SMILES: CC(=O)O[C@@H]1C(=O)N(CCN(C)C)c2ccc(C)cc2S[C@@H]1c1ccc(C)cc1 [Compound A]
- Arterial Blood Pressure change (side effects) (arterial blood pressure [1]; 1 min): -1.3 ΔmmHg
- Arterial Blood Pressure change (side effects) (arterial blood pressure [1]; 3 min): -0.8 ΔmmHg
- Arterial Blood Pressure change (side effects) (arterial blood pressure [1]; 5 min): -1.8 ΔmmHg
- Arterial Blood Pressure change (side effects) (arterial blood pressure [1]; 10 min): -1.8 ΔmmHg
- Arterial Blood Pressure change (side effects) (arterial blood pressure [1]; 20 min): -2.3 ΔmmHg
- Arterial Blood Pressure change (side effects) (arterial blood pressure [1]; 30 min): -0.5 ΔmmHg
- effect on arterial blood pressure (arterial blood pressure [1]; G and H: one minute after, in words): substantially no effect
- Femoral Arterial Blood Flow change (femoral artery [2]; 0 min (before cooling and administration; 30 min = 0)): 1.364 Δ ml/min
- Femoral Arterial Blood Flow change (femoral artery [2]; 40 min, given at 30 min: A 300 μg/kg i.v., J 0.3 μg/kg/ml continuous injection): 0.072 Δ ml/min
- Femoral Arterial Blood Flow change (femoral artery [2]; 50 min, given at 30 min: A 300 μg/kg i.v., J 0.3 μg/kg/ml continuous injection): 0.276 Δ ml/min
- Femoral Arterial Blood Flow change (femoral artery [2]; 60 min, given at 30 min: A 300 μg/kg i.v., J 0.3 μg/kg/ml continuous injection): 0.416 Δ ml/min
- Femoral Arterial Blood Flow change (femoral artery [2]; 70 min, given at 30 min: A 300 μg/kg i.v., J 0.3 μg/kg/ml continuous injection): 0.452 Δ ml/min
- Femoral Arterial Blood Flow change (femoral artery [2]; 80 min, given at 30 min: A 300 μg/kg i.v., J 0.3 μg/kg/ml continuous injection): 0.452 Δ ml/min
- Femoral Arterial Blood Flow change (femoral artery [2]; 90 min, given at 30 min: A 300 μg/kg i.v., J 0.3 μg/kg/ml continuous injection): 0.496 Δ ml/min
- Increase in femoral arterial blood flow (femoral artery [3]; 10 μg/kg i.v.): 13 mL/min
- Increase in femoral arterial blood flow (femoral artery [3]; 30 μg/kg i.v.): 30 mL/min
- Increase in femoral arterial blood flow (femoral artery [3]; 100 μg/kg i.v.): 34 mL/min
- Increase in femoral arterial blood flow (femoral artery [3]; 300 μg/kg i.v.): 32 mL/min
- lethal toxicity (mouse): no lethal toxicity was observed
- Mean Arterial Pressure change (arterial blood pressure [4]): 0.00 Δ mmHg
- Time (min) until 20A% contraction ([5]; Group II: sham operation): 16.65 ± 2.99 min
- Change in contraction of the right anterior tibial muscle ([5]; Group II: sham operation, 1 min): 3.29
- Change in contraction of the right anterior tibial muscle ([5]; Group II: sham operation, 3 min): 1.71
- Change in contraction of the right anterior tibial muscle ([5]; Group II: sham operation, 5 min): -1.29
- Change in contraction of the right anterior tibial muscle ([5]; Group II: sham operation, 10 min): -12.88
- Change in contraction of the right anterior tibial muscle ([5]; Group II: sham operation, 15 min): -20.91
- Change in contraction of the right anterior tibial muscle ([5]; Group II: sham operation, 20 min): -25.66
- Change in contraction of the right anterior tibial muscle ([5]; Group II: sham operation, 30 min): -30.19
- Time (min) until 20A% contraction ([5]; Group IV: abdominal aorta knot): 17.27 ± 3.70 min
- Change in contraction of the right anterior tibial muscle ([5]; Group IV: abdominal aorta knot, 1 min): 2.44
- Change in contraction of the right anterior tibial muscle ([5]; Group IV: abdominal aorta knot, 3 min): -1.04
- Change in contraction of the right anterior tibial muscle ([5]; Group IV: abdominal aorta knot, 5 min): -4.35
- Change in contraction of the right anterior tibial muscle ([5]; Group IV: abdominal aorta knot, 10 min): -15.46
- Change in contraction of the right anterior tibial muscle ([5]; Group IV: abdominal aorta knot, 15 min): -21.82
- Change in contraction of the right anterior tibial muscle ([5]; Group IV: abdominal aorta knot, 20 min): -25.98
- Change in contraction of the right anterior tibial muscle ([5]; Group IV: abdominal aorta knot, 30 min): -30.17
- Blood flow (femoral artery) (femoral artery [6]; 100 μg/kg i.v., 30 min): 136.3 mL/min
- Increase in blood flow (femoral artery) (femoral artery [6]; 100 μg/kg i.v., 30 min): 55.5 mL/min
- Blood flow (femoral artery) (femoral artery [6]; 100 μg/kg i.v., 60 min): 146.3 mL/min
- Increase in blood flow (femoral artery) (femoral artery [6]; 100 μg/kg i.v., 60 min): 65.5 mL/min
- Blood flow (femoral artery) (femoral artery [6]; 100 μg/kg i.v., 120 min): 143.5 mL/min
- Increase in blood flow (femoral artery) (femoral artery [6]; 100 μg/kg i.v., 120 min): 62.8 mL/min
- Blood flow (femoral artery) (femoral artery [6]; 100 μg/kg i.v., 180 min): 141.3 mL/min
- Increase in blood flow (femoral artery) (femoral artery [6]; 100 μg/kg i.v., 180 min): 60.5 mL/min
- Blood flow (femoral artery) (femoral artery [6]; 100 μg/kg i.v., 240 min): 141.5 mL/min
- Increase in blood flow (femoral artery) (femoral artery [6]; 100 μg/kg i.v., 240 min): 60.8 mL/min
- Blood flow (femoral artery) (femoral artery [6]; 100 μg/kg i.v., 300 min): 136.3 mL/min
- Increase in blood flow (femoral artery) (femoral artery [6]; 100 μg/kg i.v., 300 min): 55.5 mL/min
- Blood flow (femoral artery) (femoral artery [6]; before administration (baseline)): 80.8 mL/min
- Femoral Arterial Blood Flow change (femoral artery [7]; 1 min): 3.5 Δ ml/min
- Femoral Arterial Blood Flow change (femoral artery [7]; 3 min): 5.5 Δ ml/min
- Femoral Arterial Blood Flow change (femoral artery [7]; 5 min): 7.8 Δ ml/min
- Femoral Arterial Blood Flow change (femoral artery [7]; 10 min): 13.0 Δ ml/min
- Femoral Arterial Blood Flow change (femoral artery [7]; 20 min): 21.5 Δ ml/min
- Femoral Arterial Blood Flow change (femoral artery [7]; 30 min): 28.0 Δ ml/min
- AUC60 of the femoral arterial blood flow (femoral artery [7]; 60 minutes after administration): 1538.4 mL
- femoral arterial blood flow increasing activity (femoral artery [7]; even after 30 minutes, in words): excellent femoral arterial blood flow increasing activity
